Reference: article PMC4364779, “IMD-4690, a Novel Specific Inhibitor for Plasminogen Activator Inhibitor-1, Reduces Allergic Airway Remodeling in a Mouse Model of Chronic Asthma via Regulating Angiogenesis and Remodeling-Related Mediators” (PLoS ONE, 2015)

Experiments:
binding of tPA and PAI-1 = binding of tPA and PAI-1 (Homo sapiens, UniProt P05121); assay: Inhibition of tPA/PAI-1 complex formation (SDS-PAGE, silver staining, densitometry); details: recombinant PAI-1 + IMD-4690 in PBS 37°C 5 min, then tPA 37°C 5 min; tPA/PAI-1 complex band densitometry
Description: Fig 1 Schedule of in vivo experiments and biological activity of IMD-4690. (A) Protocols for the mouse experiments. (B) Inhibitory effects of IMD-4690 on the binding of tPA and PAI-1. The recombinant PAI-1 and IMD-4690 were mixed and incubated in PBS at 37°C for 5 min. Then tPA was added. After incubation at 37°C for 5 min, samples were applied for 10% SDS-PAGE and visualized with a silver staining. The bands of tPA/PAI-1 complex were quantified by a densitometry, and calculated IC50.
A synthetic PAI-1 inhibitor, IMD-4690, 2-[[3-(4-tert-Butylphenoxy)-4'- (trifluoromethoxy) [1,1'-biphenyl]-4-yl]oxy] acetic acid, was molecularly designed, synthesized. IMD-4690 inhibited the binding of tPA and PAI-1 at the IC50 of 8 μM (Fig. 1B).

[1] = tested on: chronic allergen exposure model of bronchial asthma in mice; assay: Lung histopathology and morphological analyses, chronic Dp asthma model; assay type: in vivo, mouse
Description: All mice were sensitized on days 0 and 7 by intraperitoneal injections of 10 μg of Dp dissolved in 500 μL saline and mixed with 1mg of Alum (Sigma-Aldrich Japan). Dp-sensitized mice were challenged intranasally with 10 μg (10 μL) Dp in 70 μL saline on alternate days, 3 days per week, from days 14 to 67. The mice were also treated intraperitoneally with IMD-4690 (10 mg/kg) (Dp/IMD group) or CMC alone (Dp/CMC group) at the same day with Dp challenge. As a control, mice were challenged with saline and given CMC during this period (control/CMC group) (Fig. 1A). Each experiment was performed using six mice per group.
The lung tissues were harvested, fixed in 10% formalin, and embedded in paraffin. Three-micrometer-thick sections were stained with Giemsa, Periodic acid-Schiff (PAS) or Azan Mallory.
Sections of lung tissue were stained immunohistochemically to detect α-smooth muscle actin (SMA), platelet endothelial cell adhesion molecule-1 (PECAM-1)/CD31. Mouse monoclonal anti-smooth muscle (1:800) (Thermo Fisher Scientific Inc., Fremont, CA, USA), or ready-to-use mouse monoclonal CD31 (GeneTex Inc., Irvine, CA, USA) was used as a primary antibody. For immunohistochemical staining, the VECTASTAIN ABC Kit (Vector Laboratories) and the Vector M.O.M. Immunodetection Kit (Vector Laboratories) were used according to the manufacturers’ protocols. Diaminobenzidine was used as a substrate for the immunoperoxidase reaction. Sections were lightly counterstained with hematoxylin and analyzed by bright-field microscopy.
An OLYMPUS BX61 microscope (Olympus, Tokyo, Japan) with Scion Image software was used for the morphological analysis. Eosinophils were counted according to a previously described method. The thickness of subepithelial fibrosis and smooth muscle layer were analyzed as follows. The area of subepithelial fibrosis (stained blue) and smooth muscle layer (α-SMA positive) around a bronchus was measured. The average thickness was determined by the area of the positive layer divided by the length of the internal circumference of the area. The mean values for thickness were calculated for 8–10 bronchi per left lung lobe.
To quantify the microvessel density, the number of CD31-positive blood vessels per field was counted in 5 random fields in each sample.

Sequence of binding of tPA and PAI-1 (P05121 24-402): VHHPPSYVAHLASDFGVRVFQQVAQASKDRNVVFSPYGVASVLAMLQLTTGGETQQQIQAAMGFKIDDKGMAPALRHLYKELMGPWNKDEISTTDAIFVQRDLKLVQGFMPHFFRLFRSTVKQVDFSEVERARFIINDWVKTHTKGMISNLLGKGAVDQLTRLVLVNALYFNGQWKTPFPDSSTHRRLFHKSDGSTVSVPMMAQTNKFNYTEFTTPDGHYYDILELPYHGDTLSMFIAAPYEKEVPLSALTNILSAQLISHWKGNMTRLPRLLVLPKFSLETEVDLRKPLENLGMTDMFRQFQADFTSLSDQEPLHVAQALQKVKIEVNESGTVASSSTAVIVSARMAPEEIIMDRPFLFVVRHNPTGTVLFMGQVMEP

## CC(C)(C)c1ccc(Oc2cc(-c3ccc(OC(F)(F)F)cc3)ccc2OCC(=O)O)cc1 [IMD-4690, 2-[[3-(4-tert-Butylphenoxy)-4'-(trifluoromethoxy) [1,1'-biphenyl]-4-yl]oxy] acetic acid]
Binding of tPA and PAI-1
  IC50: 8 µM
[1]; Azan-Mallory sections, Dp/IMD mice 10 mg/kg i.p.
  Subepithelial thickness (subepithelial fibrosis): significantly decreased
[1]; CD31 immunohistochemistry, 10 mg/kg i.p.
  Vascular density (CD31-positive blood vessels): significantly decreased
[1]; Giemsa-stained lung sections, 10 mg/kg i.p., vs Dp/CMC mice
  Number of infiltrating eosinophils in the subepithelium: significantly decreased
[1]; PAS staining of lungs, 10 mg/kg i.p., vs Dp/CMC mice
  Number of PAS-positive cells (mucous metaplasia): decreased
[1]; α-SMA immunohistochemistry, 10 mg/kg i.p.
  Subepithelial smooth muscle thickness: significant reduction
